In patent publication US20260262643A1, “HERBICIDAL BENZOXAZINES” (FMC CORPORATION, priority 2022, published 2026):

What was measured:
[1] = tested on: galium; experiment: Test C postemergence; type: in vivo, Galium aparine; settings: 10 days
Summary of the method: (§1)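 Visual injury ratings on a 0–100 scale (100 = complete control) were made against untreated controls 10 days after treatment in the greenhouse. Compounds, formulated with surfactant in non-phytotoxic solvent, were sprayed on soil preemergence or onto one- to two-leaf plants 2–10 cm tall postemergence.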

[2] = tested on: barnyardgrass; experiment: Test D flooded paddy test; type: in vivo, Echinochloa crus-galli; settings: 250 g ai/ha, applied to paddy water, visual rating after 13 to 14 days, scale 0 to 100 (0 no effect, 100 complete control)
Summary of the method: (§2)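 At the 2-leaf stage, floodwater 3 cm deep received the test compound; that depth persisted throughout. Plants scored visually 13 to 14 days on, 0 (no effect) to 100 (complete control), dash indicating no result.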

[3] = tested on: green foxtail; experiment: Test C postemergence; type: in vivo, Setaria viridis; settings: 10 days
Summary of the method: as §1

[4] = tested on: barnyardgrass; experiment: Test C preemergence; type: in vivo, Echinochloa crusgalli; settings: 0 to 100 scale (0 no effect, 100 complete control)
Summary of the method: as §1

[5] = tested on: soybean; experiment: Test C postemergence; type: in vivo, Glycine max; settings: 10 days
Summary of the method: as §1

[6] = tested on: kochia; experiment: Test C postemergence; type: in vivo, Bassia scoparia; settings: 10 days
Summary of the method: as §1

[7] = tested on: corn; experiment: Test C preemergence; type: in vivo, Zea mays; settings: 0 to 100 scale (0 no effect, 100 complete control)
Summary of the method: as §1

[8] = tested on: pigweed, palmer; experiment: Test C preemergence; type: in vivo, Amaranthus palmeri; settings: 0 to 100 scale (0 no effect, 100 complete control)
Summary of the method: as §1

[9] = tested on: oat, wild; experiment: Test C postemergence; type: in vivo, Avena fatua; settings: 10 days
Summary of the method: as §1

[10] = tested on: green foxtail; experiment: Test C preemergence; type: in vivo, Setaria viridis; settings: 0 to 100 scale (0 no effect, 100 complete control)
Summary of the method: as §1

[11] = tested on: barnyardgrass; experiment: Test C postemergence; type: in vivo, Echinochloa crusgalli; settings: 10 days
Summary of the method: as §1

[12] = tested on: wheat; experiment: Test C preemergence; type: in vivo, Triticum aestivum; settings: 0 to 100 scale (0 no effect, 100 complete control)
Summary of the method: as §1

[13] = tested on: horseweed; experiment: Test C postemergence; type: in vivo, Erigeron canadensis; settings: 10 days
Summary of the method: as §1

[14] = tested on: rice; experiment: Test D flooded paddy test; type: in vivo, Oryza sativa; settings: 250 g ai/ha, applied to paddy water, visual rating after 13 to 14 days, scale 0 to 100 (0 no effect, 100 complete control)
Summary of the method: as §2

[15] = tested on: ragweed; experiment: Test C postemergence; type: in vivo, Ambrosia artemisiifolia; settings: 10 days
Summary of the method: as §1

[16] = tested on: wheat; experiment: Test C postemergence; type: in vivo, Triticum aestivum; settings: 10 days
Summary of the method: as §1

[17] = tested on: pigweed, palmer; experiment: Test C postemergence; type: in vivo, Amaranthus palmeri; settings: 10 days
Summary of the method: as §1

[18] = tested on: oat, wild; experiment: Test C preemergence; type: in vivo, Avena fatua; settings: 0 to 100 scale (0 no effect, 100 complete control)
Summary of the method: as §1

[19] = tested on: ragweed; experiment: Test C preemergence; type: in vivo, Ambrosia artemisiifolia; settings: 0 to 100 scale (0 no effect, 100 complete control)
Summary of the method: as §1

[20] = tested on: ryegrass, Italian; experiment: Test C preemergence; type: in vivo, Lolium multiflorum; settings: 0 to 100 scale (0 no effect, 100 complete control)
Summary of the method: as §1

[21] = tested on: kochia; experiment: Test C preemergence; type: in vivo, Bassia scoparia; settings: 0 to 100 scale (0 no effect, 100 complete control)
Summary of the method: as §1

[22] = tested on: blackgrass; experiment: Test C postemergence; type: in vivo, Alopecurus myosuroides; settings: 10 days
Summary of the method: as §1

[23] = tested on: ryegrass, Italian; experiment: Test C postemergence; type: in vivo, Lolium multiflorum; settings: 10 days
Summary of the method: as §1

[24] = tested on: ducksalad; experiment: Test D flooded paddy test; type: in vivo, Heteranthera limosa; settings: 250 g ai/ha, applied to paddy water, visual rating after 13 to 14 days, scale 0 to 100 (0 no effect, 100 complete control)
Summary of the method: as §2

[25] = tested on: corn; experiment: Test C postemergence; type: in vivo, Zea mays; settings: 10 days
Summary of the method: as §1

[26] = tested on: sedge, umbrella; experiment: Test D flooded paddy test; type: in vivo, Cyperus difformis; settings: 250 g ai/ha, applied to paddy water, visual rating after 13 to 14 days, scale 0 to 100 (0 no effect, 100 complete control)
Summary of the method: as §2

[27] = tested on: blackgrass; experiment: Test C preemergence; type: in vivo, Alopecurus myosuroides; settings: 0 to 100 scale (0 no effect, 100 complete control)
Summary of the method: as §1

[28] = tested on: soybean; experiment: Test C preemergence; type: in vivo, Glycine max; settings: 0 to 100 scale (0 no effect, 100 complete control)
Summary of the method: as §1

[29] = 125 g ai/ha, postemergence, 0 to 100 scale, 0 no effect, 100 complete control
[30] = Postemergence, 500 g ai/ha, visual 0 to 100 scale (0 no effect, 100 complete control)
[31] = Preemergence, 500 g ai/ha, visual rating after 10 days
[32] = Test C, preemergence, 125 g ai/ha

SMILES: C[C@H]1CN(C(=O)c2cc(-n3cnc(C4CC4)n3)cc3c2OCCO3)c2cccc(Cl)c2O1 [Compound 156]
- Plant response rating, Galium [1, 29]: 100
- Plant response rating, Galium [1, 30]: 100
- Plant response rating, Barnyardgrass (Flood) [2]: 40
- Plant response rating, Foxtail, Green [3, 29]: 90
- Plant response rating, Foxtail, Green [3, 30]: 90
- Barnyardgrass plant response rating ([4]; 125 g ai/ha, preemergence): 70
- Plant response rating, Barnyardgrass [4, 31]: 90
- Plant response rating, Soybean [5, 29]: 100
- Plant response rating, Soybean [5, 30]: 100
- Plant response rating, Kochia [6, 29]: 80
- Plant response rating, Kochia [6, 30]: 90
- Plant response rating, Corn [7, 31]: 10
- Corn plant response rating [7, 32]: 0
- Plant response rating, Pigweed, Palmer [8, 31]: 100
- Pigweed, Palmer plant response rating [8, 32]: 100
- Plant response rating, Oat, Wild [9, 29]: 20
- Plant response rating, Oat, Wild [9, 30]: 30
- Plant response rating, Foxtail, Green [10, 31]: 100
- Foxtail, Green plant response rating [10, 32]: 100
- Plant response rating, Barnyardgrass [11, 29]: 70
- Plant response rating, Barnyardgrass [11, 30]: 90
- Plant response rating, Wheat [12, 31]: 30
- Wheat plant response rating [12, 32]: 10
- Plant response rating, Horseweed [13, 29]: 50
- Plant response rating, Horseweed [13, 30]: 60
- Plant response rating, Rice (Flood) [14]: 25
- Plant response rating, Ragweed [15, 29]: 80
- Plant response rating, Ragweed [15, 30]: 100
- Plant response rating, Wheat [16, 29]: 60
- Plant response rating, Wheat [16, 30]: 80
- Plant response rating, Pigweed, Palmer [17, 29]: 80
- Plant response rating, Pigweed, Palmer [17, 30]: 100
- Plant response rating, Oat, Wild [18, 31]: 40
- Oat, Wild plant response rating [18, 32]: 20
- Plant response rating, Ragweed [19, 31]: 90
- Ragweed plant response rating [19, 32]: 70
- Plant response rating, Ryegrass, Italian [20, 31]: 90
- Ryegrass, Italian plant response rating [20, 32]: 60
- Plant response rating, Kochia [21, 31]: 100
- Kochia plant response rating [21, 32]: 80
- Plant response rating, Blackgrass [22, 29]: 80
- Plant response rating, Blackgrass [22, 30]: 90
- Plant response rating, Ryegrass, Italian [23, 29]: 50
- Plant response rating, Ryegrass, Italian [23, 30]: 90
- Plant response rating, Ducksalad (Flood) [24]: 65
- Plant response rating, Corn [25, 29]: 30
- Plant response rating, Corn [25, 30]: 50
- Plant response rating, Sedge, Umbrella (Flood) [26]: 95
- Plant response rating, Blackgrass [27, 31]: 90
- Blackgrass plant response rating [27, 32]: 50
- Plant response rating, Soybean [28, 31]: 100
- Soybean plant response rating [28, 32]: 80
